In patent US5916759A, “Cholesterol oxidase from Brevibacterium sterolicum” (Boehringer Mannheim GmbH, priority 1993, dated 1999) one finds Km data, which are given here for two molecules.

Series [1] addresses Cholesterol oxidase I from Brevibacterium sterolicum (Brevibacterium sterolicum, UniProt P22637). As to conditions: read-out: KM (affinity for cholesterol); cited from earlier work.
Substrate in series [2]: CC(C)CCC[C@@H](C)[C@H]1CC[C@H]2[C@@H]3CC=C4C[C@@H](O)CC[C@]4(C)[C@H]3CC[C@]12C
Put plainly: KM value for cholesterol of the cholesterol oxidase according to the invention. The class given is biochemical, Brevibacterium sterolicum. The conditions noted are these: other: in 0.5 mol/l potassium phosphate buffer pH 7.5 at 25° C. The method, then: This cholesterol oxidase has a molecular weight of 60 kD, an isoelectric point of ca. 5.5 (each measured in the Phast System, Pharmacia LKB) and a KM value for cholesterol of 1×10^-4 mol/l (in 0.5 mol/l potassium phosphate buffer pH 7.5 at 25° C.) and is active in a pH range of 5.5 to 8.0.
3 ml potassium phosphate buffer (0.5 mol/l, pH 7.5) containing 0.4% Thesit® (Boehringer Mannheim GmbH, Catalogue No. 006190),
0.1 ml cholesterol solution (0.4% cholesterol, 10% l-propanol, 10% Thesit®),
0.02 ml H2 O2 (0.49 mol/l in redistilled water), it is mixed, after addition of 0.02 ml catalase (from bovine liver, 20 mg protein/ml, specific activity ca. 65,000 U/mg, Boehringer Mannheim GmbH, Catalogue No. 0156744 diluted immediately to 0.075-0.15 U/ml before measurement with ice-cold potassium phosphate buffer, containing 0.4% Thesit) it is again mixed, the solution is brought to a temperature of 25° C. and subsequently the reaction is started by addition of 0.05 ml sample solution. After careful mixing the change in absorbance at 240 nm is monitored and the activity of cholesterol oxidase is determined from the linear region of the absorbance curve: [formula] in which .di-elect cons. 240=15.5 mmol^-1 ×1×cm^-1.

Cholesterol oxidase I from Brevibacterium sterolicum, sequence (P22637 46-552): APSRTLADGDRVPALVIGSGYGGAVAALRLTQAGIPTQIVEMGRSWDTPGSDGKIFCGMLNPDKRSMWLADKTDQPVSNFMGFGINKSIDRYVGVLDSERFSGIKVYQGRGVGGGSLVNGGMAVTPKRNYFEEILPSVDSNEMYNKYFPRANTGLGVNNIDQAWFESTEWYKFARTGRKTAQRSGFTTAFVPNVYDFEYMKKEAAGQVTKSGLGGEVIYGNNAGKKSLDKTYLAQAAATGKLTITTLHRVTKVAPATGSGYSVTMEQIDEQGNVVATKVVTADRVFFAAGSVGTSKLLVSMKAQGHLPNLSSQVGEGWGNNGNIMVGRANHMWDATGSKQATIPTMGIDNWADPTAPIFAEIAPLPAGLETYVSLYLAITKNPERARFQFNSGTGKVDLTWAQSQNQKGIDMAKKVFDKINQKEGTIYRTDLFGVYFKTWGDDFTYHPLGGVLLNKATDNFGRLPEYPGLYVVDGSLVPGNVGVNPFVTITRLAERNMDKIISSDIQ

For the molecule `CC(C)CCC[C@@H](C)[C@H]1CC[C@H]2[C@@H]3CC=C4C[C@@H](O)CC[C@]4(C)[C@H]3CC[C@]12C` [cholesterol, 5-cholesten-3-β-ol], the Km (in general, the substrate concentration at which the rate is half of its maximum) in series [1] is 1100 µM.

B1: cholesterol oxidase from Brevibacterium sterolicum, SEQ ID NO 2 (Brevibacterium sterolicum) (protein)
chain: STGPVAPLPTPPNFPNDIALFQQAYQNWSKEIMLDATWVCSPKTPQDVVRLANWAHEHDYKIRPRGAMHGWTPLTVEKGANVEKVILADTMTHLNGITVNTGGPVATVTAGAGASIEAIVTELQKHDLGWANLPAPGVLSIGGALAVNAHGAALPAVGQTTLPGHTYGSLSNLVTELTAVVWNGTTYALETYQRNDPRITPLLTNLGRCFLTSVTMQAGPNFRQRCQSYTDIPWRELFAPKGADGRTFEKFVAESGGAEAIWYPFTEKPWMKVWTVSPTKPDSSNEVGSLGSAGSLVGKPPQAREVSGPYNYIFSDNLPEPITDMIGAINAGNPGIAPLFGPAMYEITKLGLAATNANDIWGWSKDVQFYIKATTLRLTEGGGAVVTSRANIATVINDFTEWFHERIEFYRAKGEFPLNGPVEIRCCGLDQAADVKVPSVGPPTISATRPRPDHPDWDVAIWLNVLGVPGTPGMFEFYREMEQWMRSHYNNDDATFRPEWSKGWAFGPDPYTDNDIVTNKMRATYIEGVPTTENWDTARARYNQIDPHRVFTNGFMDKLLP
Consider B1, for which the Michaelis-Menten constant (Km) in series [2] was 100 µM.
